Measurements published in patent US5866558A, “6-alkynyl steroids” (Regents of the University of Minnesota, priority 1997, dated 1999).
Where “and” joins values, the source holds several entries; their conditions need not be identical. Equal values may be shown once. Read-outs that look alike come from different tables or passages of the source.

Columns and labels:
aromatase [1] = target: T1, aromatase (Homo sapiens, UniProt P11511); assay: biochemical; type: biochemical; design: Microsomes were obtained from human placentas after normal deliveries; from tissue; host or cells: human placenta, microsomes (washed twice, lyophilized)
T1 sequence (P11511 1-503): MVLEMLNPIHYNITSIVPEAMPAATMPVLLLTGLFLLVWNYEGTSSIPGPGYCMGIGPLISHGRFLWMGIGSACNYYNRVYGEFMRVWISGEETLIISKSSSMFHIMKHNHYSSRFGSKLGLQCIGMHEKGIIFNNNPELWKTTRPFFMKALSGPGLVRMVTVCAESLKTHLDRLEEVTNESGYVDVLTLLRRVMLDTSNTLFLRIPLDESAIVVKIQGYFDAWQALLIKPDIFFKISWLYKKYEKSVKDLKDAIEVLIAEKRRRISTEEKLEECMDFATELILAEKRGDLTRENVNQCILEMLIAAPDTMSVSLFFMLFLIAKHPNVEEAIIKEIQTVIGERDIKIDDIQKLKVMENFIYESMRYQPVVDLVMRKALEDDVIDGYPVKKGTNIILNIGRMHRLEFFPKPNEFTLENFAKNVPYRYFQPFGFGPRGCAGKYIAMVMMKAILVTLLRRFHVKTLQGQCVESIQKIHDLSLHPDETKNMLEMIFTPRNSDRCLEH
Description: (§1) Test A. Enzyme Affinity Assay
(§2) Microsomes were obtained from human placentas after normal deliveries and prepared as described previously (Ryan, K. J. "Biological aromatization of steroids" J Biol. Chem. 1959, 234, 266-272). Following isolation of the microsomal pellets (washed twice), they were lyophilized and stored at -20° C.

aromatase [2] = target: T1, aromatase; type: biochemical; design: Microsomes were obtained from human placentas after normal deliveries; from tissue; host or cells: human placenta, microsomes (washed twice, lyophilized)
aromatase [3] = target: T1, aromatase; assay: Test C. Ki Determination / enzyme inactivation kinetics (Kitz and Wilson); settings: for T1/2 of enzyme inhibition / KI (inactivation): Table 2; for KI (inactivation): read-out: App. Ki(inact), apparent Ki for inactivation; for kinact: read-out: kcat
aromatase [4] = target: T1, aromatase; assay: Aromatase inhibition, overall results of tests A, B, and C; type: biochemical; design: Microsomes were obtained from human placentas after normal deliveries; from tissue; host or cells: human placenta, microsomes (washed twice, lyophilized)
Description: as §1, §2
Test B. Evaluation of Time-Dependent Inhibition
This determination requires measurements at initial velocities of enzyme reaction. The enzyme activity is determined following different preincubation times at various inhibitor concentrations when assayed at a substrate concentration of at least ten times the Km of androstenedione.

[5] = Incubation with rat liver homogenates (prodrug dehydration); type: in vitro ADME; settings: gives compound (4)
From the text: Accordingly, the invention includes a compound of formula III, wherein R to R^5 are defined as above; or a pharmaceutically acceptable salt thereof. The invention also includes a pharmaceutical composition comprising a compound of formula III; or a pharmaceutically acceptable salt thereof; and a pharmaceutically acceptable diluent or carrier. Because alcohols of formula III are capable of acting as prodrugs for compounds of formula I, it may be advantageous to use an alcohol of formula III in place of a corresponding compound of formula I in any of the methods disclosed herein. Accordingly, the invention includes a method for treating a disease in a human or other mammal in need thereof in which aromatase has been implicated and inhibition of its action is desired, comprising administering to said human or mammal an effective amount of a compound of formula III; or a pharmaceutically acceptable salt thereof. The invention also includes a method for inhibiting aromatase in a mammal comprising administering to said mammal an effective amount of a compound of formula III; or a pharmaceutically acceptable salt thereof.

[6] = substrate: C[C@]12CCC(=O)C=C1CC[C@@H]1[C@@H]2CC[C@]2(C)C(=O)CC[C@@H]12; assay: purified protein, by the assay type; settings: other: natural substrate

C[C@]12C=CC(=O)C=C1C=C[C@@H]1[C@@H]2CC[C@]2(C)C(=O)CC[C@@H]12 [1,4,6-ATD, androst-1,4,6-triene-3,17-dione]
Ki (aromatase [1]; Table 1, apparent Ki, read-out: Ki (apparent)): 136 nM
IC50 (aromatase [1]; Table 1, human placental microsomes, read-out: IC50): 890 nM
Type of Inhibition (aromatase [2]; Table 1): Irreversible/Inactivation

C[C@]12CCC(=O)C(O)=C1CC[C@@H]1[C@@H]2CC[C@]2(C)C(=O)CC[C@@H]12 [4-Hydroxy AD, 4-hydroxyandrostenedione]
IC50 (aromatase [1]; IC50): 250 nM
Ki (aromatase [1]; read-out: Ki (apparent)): 40.8 nM
Type of Inhibition (aromatase [2]): Irreversible/Inactivation

C#CC[C@H]1C[C@@H]2[C@H](CC[C@]3(C)C(=O)CC[C@@H]23)[C@H]2CCC(=O)C=C12 [6α-Propargyl ED]
IC50 (aromatase [1]; IC50): 430 nM
Type of Inhibition (aromatase [2]): Reversible

C#CC[C@H]1C[C@@H]2[C@H](CC[C@]3(C)C(=O)CC[C@@H]23)[C@@]2(C)CCC(=O)C=C12 [6α-propynyl compound, 6α-(2-propynyl)androst-4-ene-3,17-dione]
enzyme affinity compared with other known inhibitors (aromatase [1]): greater enzyme affinty than other known inhibitors

C#CC[C@@H]1C[C@@H]2[C@H](CC[C@]3(C)C(=O)CC[C@@H]23)[C@@]2(C)CCC(=O)C=C12 [6β-Propargyl AD, 6β-Propargyl-4-androstene-3,17-dione]
T1/2 of enzyme inhibition (aromatase [3]): 7.7 min
KI (inactivation) (aromatase [3]): 46.8 nM
kinact (aromatase [3]): 0.0015 s⁻¹
irreversibility / mechanism of inhibition (aromatase [3]; test C): irreversibly bound to the enzyme
affinity for the enzyme site relative to natural substrate androstenedione (aromatase [3]; vs androstenedione Km): about five times greater
Ki (aromatase [1]; Ki (apparent)): 9.8 nM and 87.5 nM
aromatase inhibitory properties, in words (aromatase [4]): superior to other known aromatase inhibitors

C#CC[C@@H]1C[C@@H]2[C@H](CC[C@]3(C)C(=O)CC[C@@H]23)[C@H]2CCC(=O)C=C12 [6β-Propargyl ED, 6β-Propargyl-4-estrene-3,17-dione]
T1/2 of enzyme inhibition (aromatase [3]): 9.75 min
KI (inactivation) (aromatase [3]): 15.4 nM
kinact (aromatase [3]): 0.0012 s⁻¹
IC50 (aromatase [1]; IC50): 98 nM
Ki (aromatase [1]; Ki (apparent)): 43.5 nM
Type of Inhibition (aromatase [2]): Irreversible/Inactivation

C#CC[C@]12CCC(=O)C=C1CC[C@@H]1[C@@H]2CC[C@]2(C)C(=O)CC[C@@H]12 [10β-Propargyl ED, 10-(2-propynyl)estr-4-ene-3,17-dione]
IC50 (aromatase [1]; IC50): 42 nM
Ki (aromatase [1]; Ki (apparent)): 26.7 nM
Type of Inhibition (aromatase [2]): Irreversible/Inactivation

C#CC[C@@H]1C[C@H]2[C@@H]3CCC(=O)[C@@]3(C)CC[C@@H]2[C@@]2(C)CCC(=O)C[C@]12O [compound (3)]
dehydration in the presence of rat liver homogenates [5]: found to dehydrate in the presence of the homogenates to give compound (4)

B1: aromatase (Homo sapiens) (protein)
chain: T1 sequence (P11511 1-503)
Km [6]: 0.055 µM
